Values quoted from earlier work as cited in patent US6653293B1, “Methods, apparatuses and medicaments for treating body fluid related diseases” (priority 1992, dated 2003).

Tested on: infected T-4 lymphocytes
Details: in vitro, HIV-infected T-4 lymphocytes

Substance: tumor necrosis factor [TNF]
- death of infected cells: subjects the infected cells to death
- time to coagulation of DNA of the infected T-4 lymphocytes after administration: about 3 hours
